The text below walks through data of paper PMC9164157, “Characterization and Identification of a New Daidzein Reductase Involved in (S)-Equol Biosynthesis in Clostridium sp. ZJ6” (Frontiers in Microbiology, 2022).

Molecules are shown by their SMILES.

The target of one experiment is T1, Lac 20_92 DZNR (Lactococcus garvieae, UniProt E1CIA4).
T1 construct: gene l-dznr; synthetic gene in pETDuet-1, expressed in E. coli BL21 (DE3), purified
T1 sequence (E1CIA4 1-644): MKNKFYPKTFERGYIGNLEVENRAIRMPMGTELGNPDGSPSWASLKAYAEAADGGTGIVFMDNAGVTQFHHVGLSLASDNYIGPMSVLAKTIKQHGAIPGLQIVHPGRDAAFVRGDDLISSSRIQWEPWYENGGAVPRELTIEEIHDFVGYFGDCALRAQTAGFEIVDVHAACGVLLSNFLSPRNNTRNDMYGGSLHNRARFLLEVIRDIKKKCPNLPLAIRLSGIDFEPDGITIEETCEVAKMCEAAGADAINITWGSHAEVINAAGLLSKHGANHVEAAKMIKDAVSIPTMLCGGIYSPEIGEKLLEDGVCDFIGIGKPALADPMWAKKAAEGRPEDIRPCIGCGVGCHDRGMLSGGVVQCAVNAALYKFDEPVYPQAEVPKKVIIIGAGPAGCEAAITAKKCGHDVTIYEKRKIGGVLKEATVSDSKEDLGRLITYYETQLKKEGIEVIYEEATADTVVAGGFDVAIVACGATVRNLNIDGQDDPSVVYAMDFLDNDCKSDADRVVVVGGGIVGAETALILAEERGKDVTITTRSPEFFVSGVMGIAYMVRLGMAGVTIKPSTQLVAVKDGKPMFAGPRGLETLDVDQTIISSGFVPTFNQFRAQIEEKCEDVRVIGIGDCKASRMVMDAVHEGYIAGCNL
The experiment is described as follows: daidzein reductase assay, HPLC. The class given is biochemical. The settings on record: NAD(P)H, anaerobic, 37°C.

Another experiment has as its target T2, NATTS DZNR (Slackia sp. NATTS, UniProt H3JUE4).
T2 construct: gene ddce; synthetic gene in pETDuet-1, expressed in E. coli BL21 (DE3), purified
T2 sequence (H3JUE4 1-644): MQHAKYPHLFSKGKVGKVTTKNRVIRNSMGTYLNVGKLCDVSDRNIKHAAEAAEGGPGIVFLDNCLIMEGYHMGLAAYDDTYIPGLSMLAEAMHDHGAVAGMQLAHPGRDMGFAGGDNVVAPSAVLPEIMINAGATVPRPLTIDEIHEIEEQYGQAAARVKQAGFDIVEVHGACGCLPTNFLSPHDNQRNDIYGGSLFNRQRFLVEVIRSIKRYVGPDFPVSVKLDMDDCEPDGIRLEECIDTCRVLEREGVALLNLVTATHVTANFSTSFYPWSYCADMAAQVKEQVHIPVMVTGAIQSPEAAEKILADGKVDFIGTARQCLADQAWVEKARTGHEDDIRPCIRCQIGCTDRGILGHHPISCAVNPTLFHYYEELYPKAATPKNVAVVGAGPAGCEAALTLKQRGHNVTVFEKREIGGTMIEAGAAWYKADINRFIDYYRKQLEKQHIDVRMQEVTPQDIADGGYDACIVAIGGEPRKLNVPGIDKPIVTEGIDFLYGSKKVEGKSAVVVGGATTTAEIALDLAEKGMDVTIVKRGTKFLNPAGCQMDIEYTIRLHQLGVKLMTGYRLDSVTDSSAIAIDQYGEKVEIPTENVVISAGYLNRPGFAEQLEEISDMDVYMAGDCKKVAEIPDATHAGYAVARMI
The experiment is described as follows: daidzein reductase assay, HPLC. The class given is biochemical. The settings on record: NAD(P)H, anaerobic.

For the compound `O=c1c(-c2ccc(O)cc2)coc2cc(O)ccc12` [daidzein, 7-hydroxy-3-(4-hydroxyphenyl)-4H-chromen-4-one], the “daidzein reductase assay, HPLC” value on Lac 20_92 DZNR is reported as “all recombinant proteins showed DZNR activity, which is an ability to convert DZN to DHD”; on NATTS DZNR, “all recombinant proteins showed DZNR activity, which is an ability to convert DZN to DHD”.
